According to patent US20220402950A1, “SUBSTITUTED BENZIMIDAZOLES AS PAD4 INHIBITORS” (BRISTOL-MYERS SQUIBB COMPANY, priority 2018, published 2022):
Where two headings read alike, the source gives them in different places.

Target: human PAD4 (hPAD4) (Homo sapiens, UniProt Q9UM07)
Assay: RFMS Human PAD4 Functional Assay
Format: biochemical
Details: 5 nM hPAD4, 250 μM BAEE
Method in brief: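 RapidFire ESI-MS quantification, normalised to a modified-citrulline internal standard, after phenyl glyoxal (final 4 mM) derivatisation of the TCA-quenched reaction. The enzyme (10 nM) sat 30 min with compound (up to 50 μM final) before 500 μM BAEE (as added) started a 90 min, 37 °C reaction. Buffer: HEPES pH 7.5, 50 μM calcium, 5 μM TPEN.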

[1] = human PAD4, rapid-fire mass spectrum (RFMS) assay, read-out: hPAD4 RFMS IC50
[2] = hPAD4 RFMS IC50, human PAD4, rapid-fire mass spectrum (RFMS) assay

Chain of human PAD4 (hPAD4) (Q9UM07 whole entry): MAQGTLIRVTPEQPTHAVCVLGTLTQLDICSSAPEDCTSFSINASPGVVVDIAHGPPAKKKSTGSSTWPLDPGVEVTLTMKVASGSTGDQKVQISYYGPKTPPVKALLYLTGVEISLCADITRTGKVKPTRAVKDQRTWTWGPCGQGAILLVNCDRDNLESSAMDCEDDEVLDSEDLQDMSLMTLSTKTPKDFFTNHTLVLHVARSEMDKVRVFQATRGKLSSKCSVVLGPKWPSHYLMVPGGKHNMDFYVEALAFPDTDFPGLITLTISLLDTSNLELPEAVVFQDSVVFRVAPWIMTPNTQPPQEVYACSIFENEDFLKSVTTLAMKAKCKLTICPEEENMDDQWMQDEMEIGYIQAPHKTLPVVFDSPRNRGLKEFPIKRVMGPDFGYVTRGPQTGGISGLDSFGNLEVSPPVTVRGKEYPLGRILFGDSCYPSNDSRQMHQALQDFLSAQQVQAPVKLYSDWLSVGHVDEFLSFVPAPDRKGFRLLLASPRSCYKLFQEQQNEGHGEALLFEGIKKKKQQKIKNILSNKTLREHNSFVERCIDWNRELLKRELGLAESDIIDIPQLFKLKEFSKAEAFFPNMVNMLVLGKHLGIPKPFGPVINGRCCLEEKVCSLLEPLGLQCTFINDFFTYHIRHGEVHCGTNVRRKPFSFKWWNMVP

| IC50 [1] [nM] | IC50 [2] [nM] | SMILES |
| --- | --- | --- |
| 18 |  | COc1cc(C(=O)N2C[C@H]3CC[C@@H]2[C@@H]3N)cc2nc(-c3cc4cccc(C5CCN(C(=O)Nc6ccccc6)CC5)c4n3CC3CC3)n(C)c12 [Example 187, 4-(2-(5-((1R,4R,7R)-7-amino-2-azabicyclo[2.2.1]heptane-2-carbonyl)-7-methoxy-1-methyl-1H-benzo[d]imidazol-2-yl)-1-(cyclopropylmethyl)-1H-indol-7-yl)-N-phenylpiperidine-1-carboxamide] |
| 27 |  | COc1cc(C(=O)N2C[C@H]3CC[C@@H]2[C@@H]3N)cc2nc(-c3cc4cccc(C5CCN(C(=O)N(C)C)CC5)c4n3CC3CC3)n(C)c12 [Example 188, 4-(2-(5-((1R,4R,7R)-7-amino-2-azabicyclo[2.2.1]heptane-2-carbonyl)-7-methoxy-1-methyl-1H-benzo[d]imidazol-2-yl)-1-(cyclopropylmethyl)-1H-indol-7-yl)-N,N-dimethylpiperidine-1-carboxamide] |
| 18 |  | COc1cc(C(=O)N2C[C@H](N)C[C@@H](F)C2)cc2nc(-c3cc4cccc(C5CCN(C(C)=O)CC5)c4n3CC3CC3)n(Cc3cnn(C)c3)c12 [Example 189, 1-(4-(2-(5-((3R,5R)-3-amino-5-fluoropiperidine-1-carbonyl)-7-methoxy-1-((1-methyl-1H-pyrazol-4-yl)methyl)-1H-benzo[d]imidazol-2-yl)-1-(cyclopropylmethyl)-1H-indol-7-yl)piperidin-1-yl)ethan-1-one] |
|  | 85 | COc1cc(C(=O)N2C[C@H]3CC[C@@H]2[C@@H]3N)cc2nc(-c3cc4cccc(-c5ccc6c(c5)C(F)(F)C(=O)N6)c4n3CC3CC3)n(C)c12 [Example 190, 5-(2-(5-((1R,4R,7R)-7-amino-2-azabicyclo[2.2.1]heptane-2-carbonyl)-7-methoxy-1-methyl-1H-benzo[d]imidazol-2-yl)-1-(cyclopropylmethyl)-1H-indol-7-yl)-3,3-difluoroindolin-2-one] |
|  | 81 | COc1cc(C(=O)N2C[C@H]3CC[C@@H]2[C@@H]3N)cc2nc(-c3cc4cccc(-c5ccc(C(N)=O)cc5F)c4n3CC3CC3)n(C)c12 [Example 191, 4-(2-(5-((1R,4R,7R)-7-amino-2-azabicyclo[2.2.1]heptane-2-carbonyl)-7-methoxy-1-methyl-1H-benzo[d]imidazol-2-yl)-1-(cyclopropylmethyl)-1H-indol-7-yl)-3-fluorobenzamide] |
|  | 28 | COc1cc(C(=O)N2C[C@H]3CC[C@@H]2[C@@H]3N)cc2nc(-c3cc4cccc(-c5ccc6c(c5)C(C)(O)C(=O)N6)c4n3CC3CC3)n(C)c12 (stereo partly drawn) [Example 192, 5-(2-(5-((1R,4R,7R)-7-amino-2-azabicyclo[2.2.1]heptane-2-carbonyl)-7-methoxy-1-methyl-1H-benzo[d]imidazol-2-yl)-1-(cyclopropylmethyl)-1H-indol-7-yl)-3-hydroxy-3-methylindolin-2-one] |
|  | 33 | COc1cc(C(=O)N2C[C@H]3CC[C@@H]2[C@@H]3N)cc2nc(-c3cc4cccc(-c5ccc(O)cc5C#N)c4n3CC3CC3)n(C)c12 [Example 193, 2-(2-(5-((1R,4R,7R)-7-amino-2-azabicyclo[2.2.1]heptane-2-carbonyl)-7-methoxy-1-methyl-1H-benzo[d]imidazol-2-yl)-1-(cyclopropylmethyl)-1H-indol-7-yl)-5-hydroxybenzonitrile] |
|  | 146 | COc1cc(C(=O)N2C[C@H]3CC[C@@H]2[C@@H]3N)cc2nc(-c3cc4cccc(-c5ccc(C(N)=O)nc5)c4n3CC3CC3)n(C)c12 [Example 194, 5-(2-(5-((1R,4R,7R)-7-amino-2-azabicyclo[2.2.1]heptane-2-carbonyl)-7-methoxy-1-methyl-1H-benzo[d]imidazol-2-yl)-1-(cyclopropylmethyl)-1H-indol-7-yl)picolinamide] |
|  | 120 | COc1cc(C(=O)N2C[C@H]3CC[C@@H]2[C@@H]3N)cc2nc(-c3cc4cccc(-c5ccc(O)nc5)c4n3CC3CC3)n(C)c12 [Example 197, ((1R,4R,7R)-7-amino-2-azabicyclo[2.2.1]heptan-2-yl)(2-(1-(cyclopropylmethyl)-7-(6-hydroxypyridin-3-yl)-1H-indol-2-yl)-7-methoxy-1-methyl-1H-benzo[d]imidazol-5-yl)methanone] |
|  | 26 | COc1cc(C(=O)N2C[C@H]3CC[C@@H]2[C@@H]3N)cc2nc(-c3cc4cccc(-c5ccc6c(c5)C(O)(C(F)(F)F)C(=O)N6)c4n3CC3CC3)n(C)c12 (stereo partly drawn) [Example 198, 5-(2-(5-((1R,4R,7R)-7-amino-2-azabicyclo[2.2.1]heptane-2-carbonyl)-7-methoxy-1-methyl-1H-benzo[d]imidazol-2-yl)-1-(cyclopropylmethyl)-1H-indol-7-yl)-3-hydroxy-3-(trifluoromethyl)indolin-2-one] |
|  | 159 | COc1cc(C(=O)N2C[C@H]3CC[C@@H]2[C@@H]3N)cc2nc(-c3cc4cccc(-c5cnc(C(N)=O)c(F)c5)c4n3CC3CC3)n(C)c12 [Example 199, 5-(2-(5-((1R,4R,7R)-7-amino-2-azabicyclo[2.2.1]heptane-2-carbonyl)-7-methoxy-1-methyl-1H-benzo[d]imidazol-2-yl)-1-(cyclopropylmethyl)-1H-indol-7-yl)-3-fluoropicolinamide] |
|  | 139 | COc1cc2c(cc1-c1cccc3cc(-c4nc5cc(C(=O)N6C[C@H]7CC[C@@H]6[C@@H]7N)cc(OC)c5n4C)n(CC4CC4)c13)CCC(=O)N2 [Example 204, 6-(2-(5-((1R,4R,7R)-7-amino-2-azabicyclo[2.2.1]heptane-2-carbonyl)-7-methoxy-1-methyl-1H-benzo[d]imidazol-2-yl)-1-(cyclopropylmethyl)-1H-indol-7-yl)-7-methoxy-3,4-dihydroquinolin-2(1H)-one] |
|  | 41 | COc1cc(C(=O)N2C[C@H](N)C[C@@H](F)C2)cc2nc(-c3cc4cccc(C5CCN(C(C)=O)CC5)c4n3CC3CC3)n(C)c12 [Example 205, 1-(4-(2-(5-((3R,5R)-3-amino-5-fluoropiperidine-1-carbonyl)-7-methoxy-1-methyl-1H-benzo[d]imidazol-2-yl)-1-(cyclopropylmethyl)-1H-indol-7-yl)piperidin-1-yl)ethan-1-one] |
|  | 145 | COc1cc(C(=O)N2C[C@H](N)C[C@@H](F)C2)cc2nc(-c3cc4cccc(-c5ccc(O)c(F)c5)c4n3CC3CC3)n(C)c12 [Example 206, ((3R,5R)-3-amino-5-fluoropiperidin-1-yl)(2-(1-(cyclopropylmethyl)-7-(3-fluoro-4-hydroxyphenyl)-1H-indol-2-yl)-7-methoxy-1-methyl-1H-benzo[d]imidazol-5-yl)methanone] |
|  | 70 | COc1cc(C(=O)N2C[C@H](N)C[C@@H](F)C2)cc2nc(-c3cc4cccc(-c5ccc6c(c5)CC(=O)N6)c4n3CC3CC3)n(C)c12 [Example 207, 5-(2-(5-((3R,5R)-3-amino-5-fluoropiperidine-1-carbonyl)-7-methoxy-1-methyl-1H-benzo[d]imidazol-2-yl)-1-(cyclopropylmethyl)-1H-indol-7-yl)indolin-2-one] |
|  | 71 | COc1cc(C(=O)N2C[C@H](N)C[C@@H](F)C2)cc2nc(-c3cc4cccc(-c5ccc6c(c5)C(C)(O)C(=O)N6)c4n3CC3CC3)n(C)c12 (stereo partly drawn) [Example 208, 5-(2-(5-((3R,5R)-3-amino-5-fluoropiperidine-1-carbonyl)-7-methoxy-1-methyl-1H-benzo[d]imidazol-2-yl)-1-(cyclopropylmethyl)-1H-indol-7-yl)-3-hydroxy-3-methylindolin-2-one] |
|  | 69 | COc1cc(C(=O)N2C[C@H](N)C[C@@H](F)C2)cc2nc(-c3cc4cccc(-c5ccc6c(c5)CNC6=O)c4n3CC3CC3)n(C)c12 [Example 209, 5-(2-(5-((3R,5R)-3-amino-5-fluoropiperidine-1-carbonyl)-7-methoxy-1-methyl-1H-benzo[d]imidazol-2-yl)-1-(cyclopropylmethyl)-1H-indol-7-yl)isoindolin-1-one] |
|  | 18 | COc1cc(C(=O)N2C[C@H]3CC[C@@H]2[C@@H]3N)cc2nc(-c3cc4cccc(C5CN(C(C)=O)C5)c4n3CC3CC3)n(Cc3cnn(C)c3)c12 [Example 210, 1-(3-(2-(5-((1R,4R,7R)-7-amino-2-azabicyclo[2.2.1]heptane-2-carbonyl)-7-methoxy-1-((1-methyl-1H-pyrazol-4-yl)methyl)-1H-benzo[d]imidazol-2-yl)-1-(cyclopropylmethyl)-1H-indol-7-yl)azetidin-1-yl)ethan-1-one] |
|  | 26 | COC(=O)N1CC(c2cccc3cc(-c4nc5cc(C(=O)N6C[C@H](N)C[C@@H](F)C6)cc(OC)c5n4Cc4cnn(C)c4)n(CC4CC4)c23)C1 [Example 211, methyl 3-(2-(5-((3R,5R)-3-amino-5-fluoropiperidine-1-carbonyl)-7-methoxy-1-((1-methyl-1H-pyraozl-4-yl)methyl)-1H-benzo[d]imidazol-2-yl)-1-(cyclopropylmethyl)-1H-indol-7-yl)azetidine-1-carboxylate] |
|  | 35 | COc1cc(C(=O)N2C[C@H](N)C[C@@H](F)C2)cc2nc(-c3cc4cccc(C5CN(C(C)=O)C5)c4n3CC3CC3)n(Cc3cnn(C)c3)c12 [Example 212, 1-(3-(2-(5-((3R,5R)-3-amino-5-fluoropiperidine-1-carbonyl)-7-methoxy-1-((1-methyl-1H-pryazol-4-yl)methyl)-1H-benzo[d]imidazol-2-yl)-1-(cyclopropylmethyl)-1H-indol-7-yl)azetidin-1-yl)ethane-1-one] |
|  | 21 | COC(=O)N1CC(c2cccc3cc(-c4nc5cc(C(=O)N6C[C@H]7CC[C@@H]6[C@@H]7N)cc(OC)c5n4Cc4cnn(C)c4)n(CC4CC4)c23)C1 [Example 213, methyl 3-(2-(5-((1R,4R,7R)-7-amino-2-azabicyclo[2.2.1]heptane-2-carbonyl)-7-methoxy-1-((1-methyl-1H-pyrazol-4-yl)methyl)-1H-benzo[d]imidazol-2-yl)-1-(cyclopropylmethyl)-1H-indol-7-yl)azetidine-1-carboxylate] |
